Measurements reported in patent US4428938A, “Peptides affecting the immune regulation and a process for their preparation” (Richter Gedeon Vegyeszeti Gyar Rt., priority 1981, dated 1984).
Non-standard residues stand in square brackets, D forms with d. Residues, ends and D or L forms follow the SMILES beside them. pGlu = O=C1CC[C@@H](C(=O)O)N1

What was measured:
[1] = test system: lymphocytes of patients suffering from rheumatoid arthritis; experiment: Active E-rosette test, lymphocytes of rheumatoid arthritis patients; type: cell-based, human; conditions: for E-rosette forming activity, percentage amount of active lymphocytes: n = 4; for Effect on E-rosette forming activity (in words): 10^-9 moles/lit.
Method: (§1) The active E-rosette test was carried out according to a modified method of Wybran et al [Wybran et al: New Engl. J. Med. 292, 475 (1975)] by the lymphocites of healthy and autoimmune patients (rheumatoid arthritis and systemic lupus erythematosus). To 50 μl of a lymphocyte cell suspension 10^-3 -10^-11 moles/lit. solutions of the test material were added and the mixture was incubated in an atmosphere containing 5.0% of carbon dioxide, at 37° C. for 60 minutes. Thereafter 50 μlit. of a 1% sheep erythrocite suspension were added and the mixture was centrifuged at 1000 r.p.m. for 10 minutes followed by shaking with a modified Gallenkampf-shaker (shaking time: 30 sec, stroke: 8 cm, shaking frequency: 65/min.). The rosettes were fixed with a 0.1% glutaric aldehyde (50 μlit. for each tube, 3 min.). Lymphocytes bonding more than three sheep erythrocite were counted under a microscope and 4×100 cells were evaluated. The separated lymphocytes contain macrophages and polymorphonuclear cells (up to 10%) as an impurity. The number of the cells forming the rosettes was corrected by this value each case.

[2] = test system: lymphocytes of healthy persons; experiment: Active E-rosette test, lymphocytes of healthy persons; type: cell-based, human; conditions: for E-rosette forming activity, percentage amount of active lymphocytes: n = 4
Method: as §1

[3] = test system: plaque forming spleen cells (PFC); experiment: Effect on plaque forming spleen cells (PFC); type: in vivo, H. Wistar rats; conditions: for Ratio of the plaque formation produced by treated and untreated (control) animals: new-born animals
Method: (2) The number of the cells producing a specific antibody was determined by the method of Canningham Handbook of Experimental Immunology (editor: D. M. Weir), 2nd Volume, p. 285, Blackwell, Oxford-London (1978). According to this method from the spleen cells of immunized animals, sheep erythrocyte suspension and complement a homogenous suspension was prepared and it was placed into a chamber suitable for forming a single cell layer. Around the spleen cells lytic areolas are formed, the number of which is identical with the number of the cells producing a specific antibody (plaque forming cells, PFC).
The test animals, not later than 12 hour after birth, were given a single i.p. dose of the test material. According to the method (1) three different doses of each substance were tested. On the 7th day after immunization the plaque formation of the spleen cells isolated from the animals was examined.

[4] = test system: antibody production against sheep erythrocyte; experiment: Effect on antibody production (Ceglowski's method), agglutination titer; type: in vivo, H. Wistar rats
[5] = test system: antibody production against sheep erythrocyte; experiment: as above; type: in vivo, H. Wistar rats; remark: listed apart in the source
Method: (1) The effect on antibody production was tested according to Ceglowski's method [Ceglowski: Ann. N.Y. Acad. Sci. 249, 343 (1975)]. New-born H. Wistar rats were treated with single 25 μlit. doses of 4×10^-3 -4×10^-7 moles/lit. of the test material (9 animals for each dose) at the latest at the 12th hour after birth. The 14-day animals were then immunized with a sheep erythrocyte suspension administering 0.5 ml. of a 5% sheep erythrocyte suspension each animal intraperitoneally. On the 7th day after immunization the animals were decapitated. The blood of three animals was mixed and from the serum obtained (after centrifuging at 3000 r.p.m. for 10 minutes) the titers for antibodies were determined by the method of Takatsy [Takatsy: Acta Microbiol. Acad. Sci. Hung. 3, 191 (1955)]. The results are expressed in agglutination titers. The titer corresponds to the […] dilution of the serum in which agglutination can be observed.

[6] = test system: lymphocytes forming the E-rosette; experiment: E-rosette formation, summary statement; type: cell-based
Method: as §1

[7] = single i.p. dose 1.0·10^-4 mmoles
[8] = single i.p. dose 1.0·10^-6 mmoles
[9] = single 25 μlit. dose of 4·10^-8 moles/liter to new-born rats
[10] = single 25 μlit. dose of 4·10^-4 moles/liter to new-born rats
[11] = single 25 μlit. dose of 4·10^-6 moles/liter to new-born rats
[12] = single i.p. dose 1.0·10^-8 mmoles

| SMILES | E-rosette forming activity, percentage amount of active lymphocytes ([1]; 10^-3 moles/liter) [%] | E-rosette forming activity, percentage amount of active lymphocytes ([1]; 10^-5 moles/liter) [%] | E-rosette forming activity, percentage amount of active lymphocytes ([1]; 10^-7 moles/liter) [%] | E-rosette forming activity, percentage amount of active lymphocytes ([1]; 10^-9 moles/liter) [%] | E-rosette forming activity, percentage amount of active lymphocytes ([1]; 10^-11 moles/liter) [%] | E-rosette forming activity, percentage amount of active lymphocytes ([2]; 10^-3 moles/liter) [%] | E-rosette forming activity, percentage amount of active lymphocytes ([2]; 10^-5 moles/liter) [%] | Effect on E-rosette forming activity (in words) ([2]; 10^-7 moles/lit.) | E-rosette forming activity, percentage amount of active lymphocytes ([2]; 10^-7 moles/liter) [%] | E-rosette forming activity, percentage amount of active lymphocytes ([2]; 10^-9 moles/liter) [%] | E-rosette forming activity, percentage amount of active lymphocytes ([2]; 10^-11 moles/liter) [%] | In vivo effect on plaque forming spleen cells (in words) ([3]; in all tested doses) | Ratio of the plaque formation produced by treated and untreated (control) animals [3, 7] | Ratio of the plaque formation produced by treated and untreated (control) animals [3, 8] | Antibody production, agglutination titer (X ± S.D.) [4, 9] | Antibody production, agglutination titer (X ± S.D.) [5, 10] | Antibody production, agglutination titer (X ± S.D.) [5, 11] | Effect on E-rosette forming activity (in words) [1] | Activity: increases the number of the lymphocytes forming the E-rosette [6] | Ratio of the plaque formation produced by treated and untreated (control) animals [3, 12] | also measured |
| --- | --- | --- | --- | --- | --- | --- | --- | --- | --- | --- | --- | --- | --- | --- | --- | --- | --- | --- | --- | --- | --- |
| CC(C)[C@H](NC(=O)[C@H](CC(=O)O)NC(=O)[C@H](CCCCN)NC(=O)[C@H](C)N)C(=O)O [Ala--Lys--Asp--Val, Ala-Lys-Asp-Val] (H-AKDV-OH) | 25.3 | 22.8 | 22.5 | 23.9 | 20.3 | 43.4 | 34.9 | significant stimulating effect | 47.5 | 39.1 | 36.2 | significant inhibiting activity | 0.04 | 0.01 | – | – | – | – | – | – | – |
| N=C(N)NCCC[C@H](N)C(=O)N[C@@H](CCCCN)C(=O)N[C@@H](CC(=O)O)C(=O)O [Arg--Lys--Asp, Arg-Lys-Asp] (H-Arg-Lys-Asp-OH) | 27.2 | 28.6 | 28.8 | 30.7 | 28.4 | 29.9 | 34.1 | significant stimulating effect | 41.7 | 39.3 | 35.9 | – | 0.7 | 2.1 | 6.0 ± 1.2 | 6.0 ± 0 | 7.3 ± 0.6 | significantly stimulated | active | 1.8 | In vivo effect on the antibody production (in words) ([5]; 4.10^-6 moles/lit.): significant stimulating activity; In vivo effect on plaque forming spleen cells (in words) ([3]; in lower doses): about two-times increase |
| C[C@H](NC(=O)[C@H](CC(=O)O)NC(=O)[C@H](CCCCN)NC(=O)[C@@H](N)CCCNC(=N)N)C(=O)O [Arg--Lys--Asp--Ala, Arg-Lys-Asp-Ala] (H-RKDA-OH) | 28.6 | 24.5 | 25.8 | 25.3 | 27.9 | 41.2 | 39.6 | – | 40.8 | 36.4 | 40.5 | substantial increase | 4.9 | 1.9 | – | – | – | – | – | 3.0 | In vivo effect on the antibody production (in words) ([5]; 4.10^-7 moles/lit.): significant stimulating activity; Antibody production, agglutination titer (X ± S.D.) ([5]; single 25 μlit. dose of 4·10^-3 moles/liter to new-born rats): 10.5 ± 1.5; Antibody production, agglutination titer (X ± S.D.) ([5]; single 25 μlit. dose of 4·10^-5 moles/liter to new-born rats): 11.5 ± 0.9; Antibody production, agglutination titer (X ± S.D.) ([5]; single 25 μlit. dose of 4·10^-7 moles/liter to new-born rats): 12.0 ± 0; Effect on E-rosette forming activity (in words) ([2]; 10^-11 moles/lit.): stimulating effect |
| CC(C)[C@H](NC(=O)[C@H](CC(=O)O)NC(=O)[C@H](CCCCN)NC(=O)[C@@H](N)CCCNC(=N)N)C(=O)O [Arg--Lys--Asp--Val, Arg-Lys-Asp-Val] (H-RKDV-OH) | 36.2 | 31.5 | 34.4 | 36.8 | 32.6 | 41.3 | 39.1 | – | 38.5 | 43.0 | 33.7 | – | – | – | – | – | – | significantly stimulated | active | – | Effect on E-rosette forming activity (in words) ([2]; 10^-9 moles/lit.): significant stimulating effect; Ratio of the plaque formation produced by treated and untreated (control) animals ([3]; single i.p. dose 2.5·10^-3 mmoles): 0.34; Ratio of the plaque formation produced by treated and untreated (control) animals ([3]; single i.p. dose 2.5·10^-4 mmoles): 0.8 |
| CC(C)[C@H](NC(=O)[C@H](CC(=O)O)NC(=O)[C@H](CCCCN)NC(=O)[C@@H](N)CCCNC(=N)N)C(N)=O [Arg--Lys--Asp--Val--NH2, Arg-Lys-Asp-Val-NH2] (H-RKDV-NH2) | 31.5 | 29.8 | 26.9 | 34.8 | 28.2 | 29.0 | 33.8 | – | 35.1 | 26.6 | 38.1 | – | 0.3 | 0.52 | 6.8 ± 0.8 | 5.2 ± 2.2 | 6.2 ± 2.0 | significantly stimulated | – | 2.7 | In vivo effect on the antibody production (in words) ([4]; 4.10^-8 moles/lit.): significant stimulating activity; Effect on E-rosette forming activity (in words) ([2]; 10^-11 moles/lit.): stimulating effect; In vivo effect on plaque forming spleen cells (in words) ([3]; in lower doses): about two-times increase |
| CC(C)[C@H](NC(=O)[C@H](CC(=O)O)NC(=O)[C@H](CCCCN)NC(=O)[C@H](CCCNC(=N)N)NC(=O)[C@@H]1CCC(=O)N1)C(=O)N[C@@H](Cc1ccc(O)cc1)C(=O)O [Glp--Arg--Lys--Asp--Val--Tyr, Glp-Arg-Lys-Asp-Val-Tyr] ([pGlu]RKDVY-OH) | 24.1 | 22.7 | 22.6 | 26.6 | 24.9 | 29.9 | 22.5 | – | 29.4 | 25.5 | 29.9 | – | – | – | – | – | – | – | – | – | Antibody production, agglutination titer (X ± S.D.) ([4]; footnote y: concentration 2·10^-1 moles/liter): 5.5 ± 0.6; In vivo effect on the antibody production (in words) ([5]; 2.10^-3 moles/lit.): inhibiting activity; Antibody production, agglutination titer (X ± S.D.) ([5]; column 4·10^-3 moles/liter, footnote x: concentration is half of the head value): 3.0 ± 1.0; Antibody production, agglutination titer (X ± S.D.) ([5]; column 4·10^-5 moles/liter, footnote x: concentration is half of the head value): 5.2 ± 0.8 |
